Values of other authors in patent EP0594592B1, “A GROWTH FACTOR IN […] ARTIFICIAL TRANSPLANTS” (Strid, Lars, priority 1990, dated 1997).

Assays:
thromboxane = conditions: result in words
[1] = on a molar basis
[2] = test system: macrophages, monocytes, mast cells and capillary endothelial cells; conditions: result in words
blood platelets = conditions: result in words

For “copper complex of the tripeptide glycyl-L-histidyl-L-lysine [GHK-Cu^2+]”, the “fibroblasts synthesis of collagen” value (fibroblasts; at 10^-9M, result in words) is listed as “almost doubles”, the “increase in collagen synthesis” value (fibroblasts; cultures of fibroblasts, at 10^-9M) is listed as “about 80%” and the “peptide concentration at which stimulation of collagen synthesis is observed (as low as)” value (fibroblasts; cultures of fibroblasts, lowest concentration with stimulation) is listed as 10^-12 M. For the same substance, the “peptide concentration of maximum stimulation of collagen synthesis” value (fibroblasts; cultures of fibroblasts, maximal activity) was 10^-9 M, the “effect on the hormone thromboxane” value (thromboxane) was “inhibits” and the “superoxide dismutase-like activity, rate constant relative to enzymatic Cu,Zn-superoxide dismutase” value [1] was “about 25%”. The “chemoattractive effect on cells necessary for wound-healing” value [2] was “chemoattractive effect” and the “aggregation of blood platelets” value (blood platelets) was “inhibits”.
